Molecular target: PIK3CA (human) (UniProt P42336)
Test: Inhibition of PIK3CA Kinase Activity

Chain of PIK3CA (human) (P42336 whole entry, looked up): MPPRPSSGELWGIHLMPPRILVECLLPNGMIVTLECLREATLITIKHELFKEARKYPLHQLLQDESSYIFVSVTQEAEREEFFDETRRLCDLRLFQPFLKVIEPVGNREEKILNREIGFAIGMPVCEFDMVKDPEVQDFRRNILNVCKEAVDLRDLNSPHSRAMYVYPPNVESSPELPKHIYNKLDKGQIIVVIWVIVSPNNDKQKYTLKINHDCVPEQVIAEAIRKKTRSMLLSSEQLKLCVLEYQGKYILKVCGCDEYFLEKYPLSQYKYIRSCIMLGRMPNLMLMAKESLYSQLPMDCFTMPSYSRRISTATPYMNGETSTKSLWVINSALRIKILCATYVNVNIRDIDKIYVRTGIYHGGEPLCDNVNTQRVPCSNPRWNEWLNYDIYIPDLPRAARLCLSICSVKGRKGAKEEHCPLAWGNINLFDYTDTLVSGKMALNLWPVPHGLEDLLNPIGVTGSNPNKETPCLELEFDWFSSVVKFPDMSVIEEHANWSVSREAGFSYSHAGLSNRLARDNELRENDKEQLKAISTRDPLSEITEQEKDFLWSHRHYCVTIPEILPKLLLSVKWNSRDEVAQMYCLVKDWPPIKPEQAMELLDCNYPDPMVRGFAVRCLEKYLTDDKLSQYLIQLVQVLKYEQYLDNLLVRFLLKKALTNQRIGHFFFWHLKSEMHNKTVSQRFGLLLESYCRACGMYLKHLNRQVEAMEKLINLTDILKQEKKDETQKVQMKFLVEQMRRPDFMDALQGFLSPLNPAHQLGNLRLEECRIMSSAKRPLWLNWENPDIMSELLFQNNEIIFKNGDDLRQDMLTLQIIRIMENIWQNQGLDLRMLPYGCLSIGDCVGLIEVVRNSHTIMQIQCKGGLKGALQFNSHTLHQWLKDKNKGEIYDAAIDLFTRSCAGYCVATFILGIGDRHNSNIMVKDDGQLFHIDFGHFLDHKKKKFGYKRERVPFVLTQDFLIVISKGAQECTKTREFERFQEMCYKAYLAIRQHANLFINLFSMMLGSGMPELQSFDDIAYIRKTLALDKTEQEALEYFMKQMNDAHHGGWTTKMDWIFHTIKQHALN

| SMILES | IC50 [nM] |
| --- | --- |
| CN1CCC[C@H](CNS(=O)(=O)c2cc(-c3ccc4c(c3)CN(c3ncnc5c3CC(C)(C)CC5)CCO4)cnc2N)C1 | 50 to 250 |
| COC(=O)Nc1nc2ccc(-c3ccc4c(c3)CN(c3ncccc3C)CCO4)cc2[nH]1 | 50 to 250 |
| CC(C)Nc1nc2ccc(-c3ccc4c(c3)CN(c3ccnc5ccccc35)CCO4)cc2[nH]1 | 250 to 1000 |
| Cc1nc2ccc(-c3ccc4c(c3)CN(c3ncnc5c(C#N)c6n(c35)CCCC6)CCO4)cc2[nH]1 | 50 to 250 |
| Cc1nc2ccc(-c3ccc4c(c3)CN(c3cc(C(C)C)ncn3)CCO4)cc2[nH]1 | 250 to 1000 |
| COc1ccc2c(N3CCOc4ccc(-c5ccc(-c6c[nH]cn6)cc5)cc4C3)nc(C)nc2c1 | 50 to 250 |
| CSc1nc2c(c(N3CCOc4ccc(-c5ccc6nc(C)[nH]c6c5)cc4C3)n1)CCC2 | 250 to 1000 |
| COc1ccc2c(N3CCOc4ccc(-c5ccc(N)cc5)cc4C3)nc(C)nc2c1 | 250 to 1000 |
| Cc1nc(N)sc1-c1ccc2c(c1)CN(c1ncnc3c1CCC(C)(C)C3)CCO2 | 50 to 250 |
| Cc1nc2ccc(-c3ccc4c(c3)CN(c3ncnc(C)c3C(C)C)CCO4)cc2[nH]1 | 50 to 250 |
| CN(C)Cc1nc2ncc(-c3ccc4c(c3)CN(c3ncnc5c3CC(C)(C)CC5)CCO4)cc2[nH]1 | 250 to 1000 |
| Cc1nc2ncc(-c3ccc4c(c3)CN(c3nc(CN(C)C5CC5)nc5c3CC(C)(C)CC5)CCO4)cc2[nH]1 | 50 to 250 |
| CCN1CCc2c(ncnc2N2CCOc3ccc(-c4ccc5nc(C)[nH]c5c4)cc3C2)C1 | 250 to 1000 |
| Cc1nc2ccc(-c3ccc4c(c3)CN(c3cc(C(F)(F)F)nc5ccccc35)CCO4)cc2[nH]1 | 50 to 250 |
| Cc1cccc(Cc2c(C)ncnc2N2CCOc3ccc(-c4ccc5nc(C)[nH]c5c4)cc3C2)c1 | 50 to 250 |
| Cc1nc2ncc(-c3ccc4c(c3)CN(c3nc(CO)nc5c3CC(C)(C)CC5)CCO4)cc2[nH]1 | 10 to 50 |
| CCS(=O)(=O)c1cc(-c2ccc3c(c2)CN(c2ncnc4c2CC(C)(C)CC4)CCO3)cnc1N | 10 to 50 |
| Cc1nc(C)c(Cc2ccc(F)cc2)c(N2CCOc3ccc(-c4ccc5nc(C)[nH]c5c4)cc3C2)n1 | 10 to 50 |
| Cc1ncnc(N2CCOc3ccc(-c4ccc(C(N)=O)cc4)cc3C2)c1Cc1ccc(F)cc1 | 10 to 50 |
| COc1ccccc1Cc1c(C)ncnc1N1CCOc2ccc(-c3ccc4nc(C)[nH]c4c3)cc2C1 | 50 to 250 |
| CC1(C)CCc2ncnc(N3CCOc4ccc(-c5cnc(N)c(S(=O)(=O)N6CC(C)(N)C6)c5)cc4C3)c2C1 | 10 to 50 |
| c1ccc2c(N3CCOc4ccc(-c5ccc6scnc6c5)cc4C3)ccnc2c1 | 250 to 1000 |
| CCNc1nc2ccc(-c3ccc4c(c3)CN(c3ncnc(Nc5ccc(OC)cc5)c3C)CCO4)cc2[nH]1 | 10 to 50 |
| Cc1nc2ccc(-c3ccc4c(c3)CN(c3ncnc(C)c3Cc3ccc(C(F)(F)F)cc3)CCO4)cc2[nH]1 | 10 to 50 |
| Cc1nc2ccc(-c3ccc4c(c3)CN(c3ncnc5c(Cl)cccc35)CCO4)cc2[nH]1 | 10 to 50 |

| SMILES | IC50 [nM] |
| --- | --- |
| Cc1nc2ncc(-c3ccc4c(c3)CN(c3nc(CNC5CCC5)nc5c3CC(C)(C)CC5)CCO4)cc2[nH]1 | 10 to 50 |
| Cc1nc2ncc(-c3ccc4c(c3)CN(c3ncnc5c3CCC(C(C)O)C5)CCO4)cc2[nH]1 (stereo unspecified) | 10 to 50 |
| COc1ccc2c(N3CCOc4ccc(-c5ccc6[nH]ncc6c5)cc4C3)nc(C)nc2c1 | 250 to 1000 |
| Cc1nc2ccc(-c3ccc4c(c3)CN(c3ncnc(Nc5ccccc5)c3C)CCO4)cc2[nH]1 | 50 to 250 |
| COc1ccc(-c2ccc3c(c2)CN(c2nc(CN(C)C)nc4c2CC(C)(C)CC4)CCO3)cn1 | 50 to 250 |
| Cc1nc2ccc(-c3ccc4c(c3)CN(c3ncnc5cc(Cl)c(Br)cc35)CCO4)cc2[nH]1 | 250 to 1000 |
| Cn1c(N)nc2cc(-c3ccc4c(c3)CN(c3ccnc5ccccc35)CCO4)ccc21 | 250 to 1000 |
| CCSc1nc2c(c(N3CCOc4ccc(-c5ccc6nc(C)[nH]c6c5)cc4C3)n1)CCC2 | 250 to 1000 |
| CC1(C)CCc2ncnc(N3CCOc4ccc(-c5cnc(N)c(S(=O)(=O)N6CC7(CNC7)C6)c5)cc4C3)c2C1 | 10 to 50 |
| c1ccc2c(N3CCOc4ccc(-c5ccc6[nH]ncc6c5)cc4C3)ccnc2c1 | 250 to 1000 |
| CC1=Cc2ncnc(N3CCOc4ccc(-c5cnc(N)c(S(=O)(=O)NC[C@H]6CCN(C)C6)c5)cc4C3)c2CC1(C)C | 10 to 50 |
| COc1cc2c(N3CCOc4ccc(-c5ccc6nc(C)[nH]c6c5)cc4C3)ncnc2cc1Br | 250 to 1000 |
| Cc1nc2ncc(-c3ccc4c(c3)CN(c3nc(CN5CC[C@H](F)C5)nc5c3CC(C)(C)CC5)CCO4)cc2[nH]1 | 10 to 50 |
| COc1ccc2c(N3CCOc4ccc(-c5ccc6nc(C)[nH]c6c5)cc4C3)nc(C)nc2c1 | 10 to 50 |
| CC1(C)CCc2ncnc(N3CCOc4ccc(-c5cnc(N)c(S(=O)(=O)CC(O)CO)c5)cc4C3)c2C1 (stereo unspecified) | 10 to 50 |
| CC1(C)CCc2ncnc(N3CCOc4ccc(-c5cnc(Cl)c(CS(C)(=O)=O)c5)cc4C3)c2C1 | 250 to 1000 |
| CC1(C)CCc2ncnc(N3CCOc4ccc(-c5cnc(N)c(S(=O)(=O)N6CCC(N)C6)c5)cc4C3)c2C1 (stereo unspecified) | 10 to 50 |
| Cc1nc2ccc(-c3ccc4c(c3)CN(c3ncnc5ccc(I)cc35)CCO4)cc2[nH]1 | 50 to 250 |
| CC1(C)CCc2ncnc(N3CCOc4ccc(-c5cnc(N)c(S(=O)(=O)N6CCOCC6)c5)cc4C3)c2C1 | 50 to 250 |
| CC1=Cc2ncnc(N3CCOc4ccc(-c5cnc(N)c(S(=O)(=O)NCC(C)(C)N)c5)cc4C3)c2CC1(C)C | 10 to 50 |
| COc1cccc(Cc2c(C)ncnc2N2CCOc3ccc(-c4ccc5nc(C)[nH]c5c4)cc3C2)c1 | 10 to 50 |
| CC(C)(CN)CNS(=O)(=O)c1cc(-c2ccc3c(c2)CN(c2ncnc4c2CC(C)(C)CC4)CCO3)cnc1N | 50 to 250 |
| CCN(C)S(=O)(=O)c1cc(-c2ccc3c(c2)CN(c2ncnc4c2CC(C)(C)CC4)CCO3)cnc1N | 50 to 250 |
| Cc1nc2ccc(-c3ccc4c(c3)CN(c3ncnc(C)c3Cc3cccc(Cl)c3)CCO4)cc2[nH]1 | 10 to 50 |
| CC1(C)CCc2ncnc(N3CCOc4ccc(-c5cnc(N)c(S(=O)(=O)NC(C)(C)CN)c5)cc4C3)c2C1 | 50 to 250 |

Now from value to molecule:

| IC50 [nM] | SMILES |
| --- | --- |
| 10 to 50 | Cc1nc2cc(-c3ccc4c(c3)CN(c3nc(NCCN(C)C)nc(C)c3Cc3ccc(F)cc3)CCO4)ccc2[nH]1 |
| 10 to 50 | C[C@H](CO)CS(=O)(=O)c1cc(-c2ccc3c(c2)CN(c2ncnc4c2CC(C)(C)CC4)CCO3)cnc1N |
| ≤ 10 | Cc1nc(CN(C)C)nc(N2CCOc3ccc(-c4cnc5sc(N)nc5c4)cc3C2)c1C(C)C |
| ≤ 10 | Cc1nc2cc(-c3ccc4c(c3)CN(c3nc(CN(C)C)nc(C)c3Cc3ccc(F)cc3)CCO4)cnc2[nH]1 |
| ≤ 10 | CC[C@H]1CCc2c(nc(CN(C)C)nc2N2CCOc3ccc(-c4cnc5nc(C)[nH]c5c4)cc3C2)C1 |
| ≤ 10 | CCNc1nc2ccc(-c3ccc4c(c3)CN(c3cc(C)nc5ccccc35)CCO4)cc2[nH]1 |
| 10 to 50 | CC1=Cc2ncnc(N3CCOc4ccc(-c5cnc6nc(C)[nH]c6c5)cc4C3)c2CC1(C)C |
| ≤ 10 | CN(C)Cc1nc2c(c(N3CCOc4ccc(-c5ccc(-c6ncc[nH]6)cc5)cc4C3)n1)CC(C)(C)CC2 |
| 10 to 50 | CNC(=O)c1ccc(-c2ccc3c(c2)CN(c2ncnc(C)c2Cc2ccc(F)cc2)CCO3)cc1 |
| 10 to 50 | COc1ccc(-c2ccc3c(c2)CN(c2nc(CN(C)C)nc4c2CC(C)(C)CC4)CCO3)cc1OC(F)F |
| 10 to 50 | CC[C@@H](C)NCc1nc2c(c(N3CCOc4ccc(-c5cnc6nc(C)[nH]c6c5)cc4C3)n1)CC(C)(C)CC2 |
| ≤ 10 | CC1(C)CCc2ncnc(N3CCOc4ccc(-c5cnc(N)c(S(=O)(=O)NCCF)c5)cc4C3)c2C1 |
| 10 to 50 | CC1(C)CCc2ncnc(N3CCOc4ccc(-c5cnc6[nH]ncc6c5)cc4C3)c2C1 |
| ≤ 10 | COc1ncc(-c2ccc3c(c2)CN(c2ncnc4c2CC(C)(C)CC4)CCO3)cc1NS(C)(=O)=O |
| 10 to 50 | Cc1nc2ccc(-c3ccc4c(c3)CN(c3ncnc(C)c3Cc3ccc(Cl)c(N(C)C)c3)CCO4)cc2[nH]1 |
| 10 to 50 | CCc1nc2cc(-c3ccc4c(c3)CN(c3ncnc5c3CC(C)(C)CC5)CCO4)cnc2[nH]1 |
| 10 to 50 | CC1(C)CCc2ncnc(N3CCOc4ccc(-c5cnc(N)c(S(=O)(=O)N6CCC(N)CC6)c5)cc4C3)c2C1 |
| 10 to 50 | Cc1nc2cc(-c3ccc4c(c3)CN(c3ncnc5c3CC3(CC5)CC3)CCO4)cnc2[nH]1 |

| IC50 [nM] | SMILES |
| --- | --- |
| ≤ 10 | Cc1nc2ncc(-c3ccc4c(c3)CN(c3nc(CNC(C)C)nc5c3CC(C)(C)CC5)CCO4)cc2[nH]1 |
| ≤ 10 | Cc1nc2cc(-c3ccc4c(c3)CN(c3nc(CN(C)C)nc(C)c3Cc3ccc(F)cc3)CCO4)ccc2[nH]1 |
| ≤ 10 | Cc1nc(N)nc(N2CCOc3ccc(-c4cnc5sc(N)nc5c4)cc3C2)c1Cc1ccc(F)cc1 |
| ≤ 10 | Cc1ccc2ncnc(N3CCOc4ccc(-c5cnc6nc(N)[nH]c6c5)cc4C3)c2c1 |
| 10 to 50 | Cc1nc2c(c(N3CCOc4ccc(-c5cnc6nc(C)[nH]c6c5)cc4C3)n1)CC(C)CC2 (stereo unspecified) |
| 10 to 50 | Cc1nc2cc(-c3ccc4c(c3)CN(c3nc(CN5CCCC5)nc(C)c3C(C)C)CCO4)ccc2[nH]1 |
| ≤ 10 | Cc1nc2cc(-c3ccc4c(c3)CN(c3nc([C@H]5CCCN5)nc5c3CC(C)(C)CC5)CCO4)cnc2[nH]1 |
| ≤ 10 | CCNCc1nc2c(c(N3CCOc4ccc(-c5cnc6nc(C)[nH]c6c5)cc4C3)n1)CC(C)(C)CC2 |
| ≤ 10 | CC(C)NS(=O)(=O)c1cc(-c2ccc3c(c2)CN(c2ncnc4c2CC(C)(C)CC4)CCO3)cnc1N |
| ≤ 10 | CC1(C)CCc2ncnc(N3CCOc4ccc(-c5cnc(N)c(S(=O)(=O)NCCCO)c5)cc4C3)c2C1 |
| ≤ 10 | COc1ccc2c(N3CCOc4ccc(-c5cnc(N)c(S(=O)(=O)C[C@@H](C)CO)c5)cc4C3)ncnc2c1 |
| ≤ 10 | COc1ccc2c(N3CCOc4ccc(-c5ccc6nc(N)[nH]c6c5)cc4C3)nc(C)nc2c1 |
| ≤ 10 | Cc1nc(CNCCF)nc(N2CCOc3ccc(-c4cnc5sc(N)nc5c4)cc3C2)c1C(C)C |
| ≤ 10 | CCNc1nc2ccc(-c3ccc4c(c3)CN(c3cc(C)nc5cc(OC)ccc35)CCO4)cc2[nH]1 |
| ≤ 10 | C[C@@H](CO)CS(=O)(=O)c1cc(-c2ccc3c(c2)CN(c2ncnc4c2CC(C)(C)CC4)CCO3)cnc1N |
| ≤ 10 | CC1(C)CCc2ncnc(N3CCOc4ccc(-c5cnc(Cl)c(NS(C)(=O)=O)c5)cc4C3)c2C1 |
| ≤ 10 | Cc1nc2cc(-c3ccc4c(c3)CN(c3nc(CN(C)C)nc(C)c3C(C)C)CCO4)ccc2[nH]1 |
| ≤ 10 | CC(CO)NS(=O)(=O)c1cc(-c2ccc3c(c2)CN(c2ncnc4c2CC(C)(C)CC4)CCO3)cnc1N (stereo unspecified) |
